Reference: US10934296B2, “4-imidazopyridazin-1-yl-benzamides as Btk inhibitors” (Merck Sharp & Dohme B.V., priority 2011, dated 2021)

Each molecule was assayed against Btk enzyme (His-Btk) (Homo sapiens (Human), UniProt Q06187) (assay: Btk enzyme activity, IMAP fluorescence polarization assay). Settings: 60 min pre-incubation, 5 μM ATP, bin bounds in nM.
Sequence of Btk enzyme (His-Btk) (Q06187 whole entry): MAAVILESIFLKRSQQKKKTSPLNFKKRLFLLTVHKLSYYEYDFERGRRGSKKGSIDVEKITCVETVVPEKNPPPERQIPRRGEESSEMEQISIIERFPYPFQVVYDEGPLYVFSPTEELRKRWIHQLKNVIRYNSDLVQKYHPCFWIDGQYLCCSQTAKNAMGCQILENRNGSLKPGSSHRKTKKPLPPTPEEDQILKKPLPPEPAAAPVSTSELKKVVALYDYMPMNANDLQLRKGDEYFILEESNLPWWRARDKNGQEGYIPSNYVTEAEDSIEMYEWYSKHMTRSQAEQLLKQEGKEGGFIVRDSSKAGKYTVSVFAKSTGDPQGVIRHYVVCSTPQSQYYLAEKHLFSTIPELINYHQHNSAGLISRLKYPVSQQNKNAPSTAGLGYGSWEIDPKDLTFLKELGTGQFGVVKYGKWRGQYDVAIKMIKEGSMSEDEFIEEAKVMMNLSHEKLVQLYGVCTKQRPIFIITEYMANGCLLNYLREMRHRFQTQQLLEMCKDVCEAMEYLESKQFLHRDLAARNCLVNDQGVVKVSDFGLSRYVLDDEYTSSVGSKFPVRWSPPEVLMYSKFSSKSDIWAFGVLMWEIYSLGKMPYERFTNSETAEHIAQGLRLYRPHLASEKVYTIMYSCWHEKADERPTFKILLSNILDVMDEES

| EC50 Btk activity values [nM] | SMILES |
| --- | --- |
| <100 | COC/C=C/C(=O)N1CCC[C@H]1c1nc(-c2ccc(C(=O)Nc3cc(C#N)ccn3)cc2)c2c(N)nccn12 [Example 98, (S,E)-4-(8-amino-3-(1-(4-methoxybut-2-enoyl)pyrrolidin-2-yl)imidazo[1,5-a]pyrazin-1-yl)-N-(4-cyanopyridin-2-yl)benzamide] |
| <100 | CC#CC(=O)N1CCC[C@H]1c1nc(-c2ccc(C(=O)Nc3ccccn3)c(OC)c2)c2c(N)nccn12 [Example 99, (S)-4-(8-amino-3-(1-but-2-ynoylpyrrolidin-2-yl)imidazo[1,5-a]pyrazin-1-yl)-2-methoxy-N-(pyridin-2-yl)benzamide] |
| <100 | CN(C)C/C=C/C(=O)N1CCCC[C@H]1c1nc(-c2ccc(C(=O)Nc3cccnn3)cc2)c2c(N)nccn12 [Example 73, (S,E)-4-(8-amino-3-(1-(4-(dimethylamino)but-2-enoyl)piperidin-2-yl)imidazo[1,5-a]pyrazin-1-yl)-N-(pyridazin-3-yl)benzamide] |
| <100 | Nc1nccn2c([C@@H]3CCCCN3C(=O)c3ccnc(Cl)n3)nc(-c3ccc(C(=O)Nc4cc(F)ccn4)cc3)c12 [Example 80, (S)-4-(8-amino-3-(1-(2-chloropyrimidine-4-carbonyl)piperidin-2-yl)imidazo[1,5-a]pyrazin-1-yl)-N-(4-fluoropyridin-2-yl)benzamide] |
| <100 | COCC#CC(=O)N1CCC[C@H]1c1nc(-c2ccc(C(=O)Nc3ccccn3)cc2)c2c(N)nccn12 [Example 41, (S)-4-(8-Amino-3-(1-(4-methoxybut-2-ynoyl)pyrrolidin-2-yl)imidazo[1,5-a]pyrazin-1-yl)-N-(pyridin-2-yl)benzamide] |
| <100 | CCc1ccnc(NC(=O)c2ccc(-c3nc([C@@H]4CCCN4C(=O)/C=C/COC)n4ccnc(N)c34)cc2)c1 [Example 11, (S,E)-4-(8-Amino-3-(1-(4-methoxybut-2-enoyl)pyrrolidin-2-yl)-imidazo[1,5-a]pyrazin-1-yl)-N-(4-ethylpyridin-2-yl)benzamide] |
| <100 | CC#CC(=O)N1CCC[C@H]1c1nc(-c2ccc(C(=O)Nc3cc(F)ccn3)cc2)c2c(N)nccn12 [Example 106, (S)-4-(8-amino-3-(1-but-2-ynoylpyrrolidin-2-yl)imidazo[1,5-a]pyrazin-1-yl)-N-(4-fluoropyridin-2-yl)benzamide] |
| <100 | Cc1ccnc(NC(=O)c2ccc(-c3nc([C@@H]4CCCN4C(=O)/C=C/CN(C)C)n4ccnc(N)c34)cc2)c1 [Example 59, (S,E)-4-(8-amino-3-(1-(4-(dimethylamino)but-2-enoyl)pyrrolidin-2-yl)imidazo[1,5-a]pyrazin-1-yl)-N-(4-methylpyridin-2-yl)benzamide] |
| <100 | COC/C=C/C(=O)N1CCCC[C@H]1c1nc(-c2ccc(C(=O)Nc3cc(F)ccn3)cc2)c2c(N)nccn12 [Example 81, (S,E)-4-(8-amino-3-(1-(4-methoxybut-2-enoyl)piperidin-2-yl)imidazo[1,5-a]pyrazin-1-yl)-N-(4-fluoropyridin-2-yl)benzamide] |
| <100 | COC/C=C/C(=O)N1CCC[C@H]1c1nc(-c2ccc(C(=O)Nc3cc(OC)ccn3)cc2)c2c(N)nccn12 [Example 51, (S,E)-4-(8-amino-3-(1-(4-methoxybut-2-enoyl)pyrrolidin-2-yl)imidazo[1,5-a]pyrazin-1-yl)-N-(4-methoxypyridin-2-yl)benzamide] |
| <100 | CC(C)c1ccnc(NC(=O)c2ccc(-c3nc([C@@H]4CCCN4C(=O)c4ccnc(Cl)n4)n4ccnc(N)c34)cc2)c1 [Example 70, (S)-4-(8-amino-3-(1-(2-chloropyrimidine-4-carbonyl)pyrrolidin-2-yl)imidazo[1,5-a]pyrazin-1-yl)-N-(4-isopropylpyridin-2-yl)benzamide] |
| <100 | CC#CC(=O)N1CCCC[C@H]1c1nc(-c2ccc(C(=O)Nc3nccc(C)n3)cc2)c2c(N)nccn12 [Example 89, (S)-4-(8-amino-3-(1-but-2-ynoylpiperidin-2-yl)imidazo[1,5-a]pyrazin-1-yl)-N-(4-methylpyrimidin-2-yl)benzamide] |
| <100 | CC#CC(=O)N1CCCC[C@H]1c1nc(-c2ccc(C(=O)Nc3ccon3)cc2)c2c(N)nccn12 [Example 24, (S)-4-(8-Amino-3-(1-but-2-ynoylpiperidin-2-yl)imidazo[1,5-a]pyrazin-1-yl)-N-(isoxazol-3-yl)benzamide] |

More lines, now with the values behind:

| SMILES | EC50 Btk activity values [nM] |
| --- | --- |
| COc1cc(-c2nc([C@@H]3CCCN3C(=O)c3ccnc(Cl)n3)n3ccnc(N)c23)ccc1C(=O)Nc1ccccn1 [Example 83, (S)-4-(8-amino-3-(1-(2-chloropyrimidine-4-carbonyl)pyrrolidin-2-yl)imidazo[1,5-a]pyrazin-1-yl)-2-methoxy-N-(pyridin-2-yl)benzamide] | <100 |
| Nc1nccn2c([C@@H]3CCCN3C(=O)c3ccnc(Cl)n3)nc(-c3ccc(C(=O)Nc4ccccn4)c(F)c3)c12 [Example 84, (S)-4-(8-amino-3-(1-(2-chloropyrimidine-4-carbonyl)pyrrolidin-2-yl)imidazo[1,5-a]pyrazin-1-yl)-2-fluoro-N-(pyridin-2-yl)benzamide] | <100 |
| COC/C=C/C(=O)NCc1nc(-c2ccc(C(=O)Nc3ccccn3)cc2)c2c(N)nccn12 [Example 95, (E)-4-(8-amino-3-((4-methoxybut-2-enamido)methyl)imidazo[1,5-a]pyrazin-1-yl)-N-(pyridin-2-yl)benzamide] | <100 |
| CC#CC(=O)NCc1nc(-c2ccc(C(=O)Nc3ccccn3)cc2)c2c(N)nccn12 [Example 112, 4-(8-amino-3-(but-2-ynamidomethyl)imidazo[1,5-a]pyrazin-1-yl)-N-(pyridin-2-yl)benzamide] | <100 |
| CCCc1ccnc(NC(=O)c2ccc(-c3nc([C@@H]4CCCCN4C(=O)/C=C/COC)n4ccnc(N)c34)cc2F)c1 [Example 114, (S,E)-4-(8-amino-3-(1-(4-methoxybut-2-enoyl)piperidin-2-yl)imidazo[1,5-a]pyrazin-1-yl)-2-fluoro-N-(4-propylpyridin-2-yl)benzamide] | <100 |
| Cc1cc(C(=O)Nc2ccccn2)ccc1-c1nc([C@@H]2CCCCN2C(=O)c2ccnc(Cl)n2)n2ccnc(N)c12 [Example 56, 4-(8-amino-3-((S)-1-(2-chloropyrimidine-4-carbonyl)piperidin-2-yl)imidazo[1,5-a]pyrazin-1-yl)-3-methyl-N-(pyridin-2-yl)benzamide] | <100 |
| C[C@H](NC(=O)c1ccnc(Cl)n1)c1nc(-c2ccc(C(=O)Nc3ccccn3)cc2)c2c(N)nccn12 [Example 105, (S)-N-(1-(8-amino-1-(4-(pyridin-2-ylcarbamoyl)phenyl)imidazo[1,5-a]pyrazin-3-yl)ethyl)-2-chloropyrimidine-4-carboxamide] | <100 |

Same assay, conditions: 60 min pre-incubation, 5 μM ATP, bin bounds in μM

| EC50 Btk activity values [nM] | SMILES |
| --- | --- |
| <1000 | COC/C=C/C(=O)N1CCCC[C@H]1c1nc(-c2ccc(C(=O)Nc3nccc(C)n3)cc2)c2c(N)nccn12 [Example 88, (S,E)-4-(8-amino-3-(1-(4-methoxybut-2-enoyl)piperidin-2-yl)imidazo[1,5-a]pyrazin-1-yl)-N-(4-methylpyrimidin-2-yl)benzamide] |
| <1000 | C=CC(=O)N1CCCC[C@H]1c1nc(-c2ccc(C(=O)Nc3ccccn3)cc2C)c2c(N)nccn12 [Example 68, 4-(3-((S)-1-acryloylpiperidin-2-yl)-8-aminoimidazo[1,5-a]pyrazin-1-yl)-3-methyl-N-(pyridin-2-yl)benzamide] |
| <1000 | COC/C=C/C(=O)N1CCC[C@H]1c1nc(-c2ccc(C(=O)Nc3cc(F)ccn3)cc2)c2c(N)nccn12 [Example 53, (S,E)-4-(8-amino-3-(1-(4-methoxybut-2-enoyl)pyrrolidin-2-yl)imidazo[1,5-a]pyrazin-1-yl)-N-(4-fluoropyridin-2-yl)benzamide] |
| <1000 | Nc1nccn2c([C@@H]3CCCCN3C(=O)c3ccnc(Cl)n3)nc(-c3ccc(C(=O)Nc4ncccn4)cc3)c12 [Example 90, (S)-4-(8-amino-3-(1-(2-chloropyrimidine-4-carbonyl)piperidin-2-yl)imidazo[1,5-a]pyrazin-1-yl)-N-(pyrimidin-2-yl)benzamide] |
| <1000 | COC/C=C/C(=O)N1CCCC[C@H]1c1nc(-c2ccc(C(=O)Nc3ccon3)cc2)c2c(N)nccn12 [Example 54, (S,E)-4-(8-amino-3-(1-(4-methoxybut-2-enoyl)piperidin-2-yl)imidazo[1,5-a]pyrazin-1-yl)-N-(isoxazol-3-yl)benzamide] |

More lines, now with the values behind:

| SMILES | EC50 Btk activity values [nM] |
| --- | --- |
| N#CCN1CCC[C@H]1c1nc(-c2ccc(C(=O)Nc3ccccn3)cc2)c2c(N)nccn12 [Example 94, (S)-4-(8-amino-3-(1-(cyanomethyl)pyrrolidin-2-yl)imidazo[1,5-a]pyrazin-1-yl)-N-(pyridin-2-yl)benzamide] | <1000 |
| CCCc1ccnc(NC(=O)c2ccc(-c3nc([C@@H]4CCCN4C(=O)/C=C/COC)n4ccnc(N)c34)c(C)c2)c1 [Example 87, 4-(8-amino-3-((S)-1-((E)-4-methoxybut-2-enoyl)pyrrolidin-2-yl)imidazo[1,5-a]pyrazin-1-yl)-3-methyl-N-(4-propylpyridin-2-yl)benzamide] | <1000 |
| C=C(C(=O)N1CCC[C@H]1c1nc(-c2ccc(C(=O)Nc3ccccn3)cc2)c2c(N)nccn12)C(F)(F)F [Example 92, (S)-4-(8-amino-3-(1-(2-(trifluoromethyl)acryloyl)pyrrolidin-2-yl)imidazo[1,5-a]pyrazin-1-yl)-N-(pyridin-2-yl)benzamide] | <1000 |
| COC/C=C/C(=O)N1CCC[C@H]1c1nc(-c2ccc(C(=O)Nc3ccccn3)c(F)c2)c2c(N)nccn12 [Example 52] | <1000 |
| COC/C=C/C(=O)N1CCCC[C@H]1c1nc(-c2ccc(C(=O)Nc3ccccn3)cc2C)c2c(N)nccn12 [Example 85, 4-(8-amino-3-((S)-1-((E)-4-methoxybut-2-enoyl)piperidin-2-yl)imidazo[1,5-a]pyrazin-1-yl)-3-methyl-N-(pyridin-2-yl)benzamide] | <1000 |
